In PMC10831071, “Reaction hijacking inhibition of Plasmodium falciparum asparagine tRNA synthetase” (Nature Communications, 2024):
Several values for one entry are separate records, joined by “and”; a condition that tells them apart may be missing. Equal values may be shown once. Read-outs that look alike come from different tables or passages of the source.

Assays:
[1] = system: P. falciparum Dd2-B2 clone; assay: microbe, parasite or virus in culture; type: cell-based, Plasmodium falciparum; conditions: Plasmodium falciparum, DD2
Excerpt: Wells were monitored daily by smear during the first 7 days to ensure parasite clearance, during which media was changed daily. […] Whole-genome sequencing analysis employed MiSeq data from libraries of 2 × 300 bp paired end reads.

P. falciparum Dd2 parent = assay: 72 h sensitivity of wildtype Dd2 parent line; type: cell-based, Plasmodium falciparum; conditions: for growth after 72 h exposure, normalised to no drug: replicates
[2] = system: PfGDH3 cKD P. falciparum line; assay: microbe, parasite or virus in culture; type: cell-based, Plasmodium falciparum; conditions: for Growth: PfGDH K/D
Excerpt: Conditional knockdown (cKD) P. falciparum lines were generated for the cytosolic AsnRS (PF3D7_0211800), cytosolic AlaRS (PF3D7_1367700), cytosolic GlyRS (GlyRS; PF3D7_1420400), PfNT4 (PF3D7_0103200), P. falciparum glutamate dehydrogenase 3 (GDH3; PF3D7_0802000), and P. falciparum carbonic anhydrase (CA, PF3D7_1140000) by fusing the coding sequences and non-coding RNA aptamer sequences in the 3’-UTR, permitting translation regulation using the TetR-DOZI system[59],[60]. Gene editing was achieved by CRISPR/SpCas9 using the linear pSN054 vector that contains cloning sites for the left homology region (LHR) and the right homology region (RHR) as well a target-specific guide RNA under control of the T7 promoter. Cloning into the pSN054 donor vector was carried out following described procedures[59],[60]. The vector includes V5-2xHA epitope tags, a 10x tandem array of TetR aptamers upstream of an Hsp86 3’UTR, and a multicistronic cassette for expression of TetR-DOZI (translation regulation), blasticidin S-deaminase (selection marker) and a Renilla luciferase (RLuc) reporter. All primer and synthetic fragment sequences that were generated using the BioXP™ system and IDT gBlocks™ are included in Supplementary Table 9. The final constructs were sequence-verified and further confirmed by restriction digests.
Transfection into Cas9- and T7 RNA polymerase-expressing NF54 parasites was carried out by pre-loading red blood cells (RBCs) with the donor vector[61]. […] Cultures were monitored by Giemsa smears and RLuc measurements.
DMSO- and dihydroartemisinin-treatment (0.5 µM) served as reference controls.

[3] = system: control YFP line (TetR/DOZI module); assay: OSM-S-106 susceptibility assay, control YFP line; type: cell-based, Plasmodium falciparum; conditions: YFP-aptamer control line
Experimental: Synchronous ring-stage PfAsnRS, PfAlaRS, PfGlyRS, PfNT4, PfGDH3, and PfCA cKD parasites, as well as a control line expressing a fluorescent protein under the control of the TetR/DOZI module, were maintained in 0.5 µM aTc to achieve wild-type protein levels, and 0.001 or 0.0015 µM aTc for knockdown of PfAsnRS, PfAlaRS and PfGlyRS, and no aTc for knockdown of PfNT4, PfGDH3 and PfCA. DMSO- and dihydroartemisinin-treatment (0.5 µM) served as reference controls.

HsAsnRS = target: T1, HsAsnRS (Homo sapiens, UniProt O43776); assay: ATP consumption assay (Kinase-Glo), HsAsnRS; type: biochemical; conditions: for ATP consumption: HsAsnRS, normalised to 1 (Fig 3C)
T1 construct: HsAsnRS (residues M1–P548) and CDHsAsnRS (residues A98–P548); His6 (N, cleaved yes); made in house; host or cells: E. coli BL21 (DE3), pET11a
T1 sequence (O43776 1-548): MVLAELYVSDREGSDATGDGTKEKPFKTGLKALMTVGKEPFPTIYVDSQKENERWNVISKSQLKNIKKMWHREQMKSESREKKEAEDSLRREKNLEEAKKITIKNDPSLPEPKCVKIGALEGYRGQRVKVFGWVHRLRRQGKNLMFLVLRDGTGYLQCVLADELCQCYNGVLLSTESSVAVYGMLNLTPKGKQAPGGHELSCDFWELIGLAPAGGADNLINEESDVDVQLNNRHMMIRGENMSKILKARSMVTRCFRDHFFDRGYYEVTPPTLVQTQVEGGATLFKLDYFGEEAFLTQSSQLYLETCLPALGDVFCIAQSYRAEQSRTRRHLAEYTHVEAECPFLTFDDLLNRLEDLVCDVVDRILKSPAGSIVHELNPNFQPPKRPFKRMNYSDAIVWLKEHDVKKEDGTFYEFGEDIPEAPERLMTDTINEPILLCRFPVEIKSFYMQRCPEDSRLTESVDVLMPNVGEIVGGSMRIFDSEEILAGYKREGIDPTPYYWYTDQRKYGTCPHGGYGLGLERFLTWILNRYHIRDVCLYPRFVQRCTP

Nc1ncnc2cc(-c3cccc(S(N)(=O)=O)c3)sc12 [OSM-S-106] was tested, and the IC50 [1] was 88.9 nM, the IC90 [1] was 169 nM and the “growth after 72 h exposure, normalised to no drug” value (“growth … normalised to no drug” for short) (P. falciparum Dd2 parent; Dd2 parent, 3.90625 nM) was 105.433 and 105.733 and 104.567 and 104.167 and 104.633. The “growth … normalised to no drug” value (P. falciparum Dd2 parent; Dd2 parent, 7.8125 nM) was 105.2 and 103.8 and 105.633 and 102.933 and 104.1, the “growth … normalised to no drug” value (P. falciparum Dd2 parent; Dd2 parent, 31.25 nM) was 88.9667 and 98.9 and 97.0667 and 93.5333 and 97.5667 and the “growth … normalised to no drug” value (P. falciparum Dd2 parent; Dd2 parent, 62.5 nM) was 45.3 and 68.4 and 68.8333 and 58.4667 and 65.5. The “growth … normalised to no drug” value (P. falciparum Dd2 parent; Dd2 parent, 125 nM) was 7.633 and 16.6667 and 15.5333 and 13.8333 and 17.5667, the “growth … normalised to no drug” value (P. falciparum Dd2 parent; Dd2 parent, 250 nM) was 0.2 and 1.267 and 0.5667 and -1.767 and 2.067 and the “growth … normalised to no drug” value (P. falciparum Dd2 parent; Dd2 parent, 500 nM) was -1.167 and 0 and -0.8 and -3.167 and 0.4. The “growth … normalised to no drug” value (P. falciparum Dd2 parent; Dd2 parent, 1000 nM) was -1.867 and -0.3333 and -1.3 and -3.5 and -0.4667, the “growth … normalised to no drug” value (P. falciparum Dd2 parent; Dd2 parent, 2000 nM) was -0.8333 and -0.3667 and -0.8667 and -2.833 and 0.5 and the IC50 (P. falciparum Dd2 parent; Dd2 parent, individual experiments) was 75.6 nM and 76.2 nM and 70 nM and 74.2 nM. The IC50 (P. falciparum Dd2 parent; Plasmodium falciparum, DD2, Dd2 parent, individual experiments) was 57 nM, the IC50 (P. falciparum Dd2 parent; Plasmodium falciparum, DD2, Dd2 parent, mean ± S.D., five experiments) was 71 nM and the Growth ([2]; 3.125 nM OSM-S-106, 500 nM aTc) was 94.0541 and 124.457 and 123.311 and 110.909. The Growth ([2]; 3.125 nM OSM-S-106, no aTc) was 87.3995 and 105.933 and 109.078 and 106.271, the Growth ([2]; 6.25 nM OSM-S-106, 500 nM aTc) was 100.123 and 114.751 and 110.911 and 107.384 and the Growth ([2]; 6.25 nM OSM-S-106, no aTc) was 83.7383 and 126.64 and 124.278 and 107.945. The Growth ([2]; 12.5 nM OSM-S-106, 500 nM aTc) was 87.2036 and 124.904 and 116.677 and 110.631, the Growth ([2]; 12.5 nM OSM-S-106, no aTc) was 66.2785 and 97.9464 and 116.025 and 105.41 and the Growth ([2]; 200 nM OSM-S-106, 500 nM aTc) was 11.4175 and 15.1341 and 15.4371 and 10.7452. For the same compound, the Growth ([2]; 200 nM OSM-S-106, no aTc) was 9.827 and 15.4022 and 15.1307 and 8.291, the IC50 ([2]; PfGDH3 line, 500 nM aTc, individual repeats) was 22.8 nM and 69.5 nM and 36.5 nM and 30.2 nM and the IC50 ([2]; Plasmodium falciparum, read-out: Mean IC50 with 500 nM aTc, PfGDH3 line, 500 nM aTc) was 40 nM. The IC50 ([2]; Plasmodium falciparum, read-out: Mean IC50 with low (1 or […])/ no aTc, PfGDH3 knockdown, no aTc) was 46 nM, the Growth ([3]; 3.125 nM OSM-S-106, 500 nM aTc) was 98.4708 and 116.919 and 104.321 and the Growth ([3]; 3.125 nM OSM-S-106, no aTc) was 98.4734 and 92.161 and 100.93. The Growth ([3]; 6.25 nM OSM-S-106, 500 nM aTc) was 96.7408 and 93.8415 and 101.366, the Growth ([3]; 6.25 nM OSM-S-106, no aTc) was 92.1288 and 90.7869 and 100.211 and the Growth ([3]; 12.5 nM OSM-S-106, 500 nM aTc) was 103.105 and 71.6867 and 103.065. The Growth ([3]; 12.5 nM OSM-S-106, no aTc) was 102.145 and 82.3472 and 97.2955, the Growth ([3]; 25 nM OSM-S-106, 500 nM aTc) was 96.4937 and 50.4813 and 93.5 and the Growth ([3]; 25 nM OSM-S-106, no aTc) was 103.53 and 55.9318 and 95.9432. The ATP consumption (HsAsnRS; 0.1 μM OSM-S-106) was 0.9809 and 0.9695 and 0.9878, the IC50 (HsAsnRS; 0.2 μM HsAsnRS, E. coli tRNA present, 37 °C, 1 h (Fig. 3C, D)) was greater than 100000 nM and the ATP consumption (HsAsnRS; 1 μM OSM-S-106) was 0.993 and 0.9826 and 1. For the same compound, the ATP consumption (HsAsnRS; 3 μM OSM-S-106) was 0.9931 and 0.9791 and 0.9532, the ATP consumption (HsAsnRS; 10 μM OSM-S-106) was 0.9721 and 1 and 0.9745 and the ATP consumption (HsAsnRS; 30 μM OSM-S-106) was 0.9297 and 0.9566 and 0.9615. For the same compound, the ATP consumption (HsAsnRS; 100 μM OSM-S-106) was 0.955 and 0.928 and 0.9784 and the ATP consumption (HsAsnRS; 200 μM OSM-S-106) was 0.929 and 0.9898.
